Patent US5677282A (Proscript, Inc., priority 1995, dated 1997)

Assays:
72 kD gelatinase = target: T1, 72 kD gelatinase (Homo sapiens, UniProt P08253); test: Assay of 72 KD gelatinase inhibition activity; type: biochemical; conditions: 72KD gelatinase 180 pM, H-150 buffer pH 7.4; read-out: Ki(app)
T1 sequence (P08253 110-660): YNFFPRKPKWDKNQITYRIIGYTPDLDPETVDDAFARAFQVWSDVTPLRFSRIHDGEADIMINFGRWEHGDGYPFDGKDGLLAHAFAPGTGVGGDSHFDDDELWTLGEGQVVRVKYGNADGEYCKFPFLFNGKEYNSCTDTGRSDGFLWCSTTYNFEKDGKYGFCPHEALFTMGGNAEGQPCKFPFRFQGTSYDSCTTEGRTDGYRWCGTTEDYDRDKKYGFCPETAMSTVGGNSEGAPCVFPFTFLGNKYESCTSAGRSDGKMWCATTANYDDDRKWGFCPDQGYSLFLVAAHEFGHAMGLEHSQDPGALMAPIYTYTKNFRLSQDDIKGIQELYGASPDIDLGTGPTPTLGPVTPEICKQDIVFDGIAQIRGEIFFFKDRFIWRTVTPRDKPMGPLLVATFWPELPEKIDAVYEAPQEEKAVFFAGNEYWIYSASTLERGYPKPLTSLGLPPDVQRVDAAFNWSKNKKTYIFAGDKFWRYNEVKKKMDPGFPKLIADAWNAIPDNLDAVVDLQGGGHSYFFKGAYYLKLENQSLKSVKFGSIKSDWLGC
Method: H-150 buffer, pH 7.4, was prepared by CaCl2 H2O (1.47 grams), NaCl (8.77 grams) and N-[2 -hydroxyethyl]piperazine-N'-[2-ethanesulfonic acid](23.83 grams) to distilled and deionized water and then bring the final volume of the solution to 1 liter. An reaction mixture having a final volume of 250 μL was prepared with H-150 buffer, 40 μgrams of Pro-72KD gelatinase (Strongin, et al., J. Biol. Chem. 268:14033 (1993); Goldberg, et al., J. Biol. Chem., 267:4583 (1992); Kleiner, et al., Biochemistry 32:1583 (1993)) and p-aminophenyl mercuric acetate (Sigma Chemical Co., St. Louis, Mo.) (1 mM). The reaction mixture was then incubated for 3 hours at 25° C.
The reaction mixture was applied to a NAP-5 column (G-25 SEPHADEX™, Pharmacia). Fractions containing […] were identified using 12% SDS polyacrylamide gel electrphoresis and concentrated to about 100-200 μliters by centrifigation (5000 g, 15 minutes).
A solution containing H-150 buffer (2.0 mL), 72KD gelatinase (180 pM) and ethylphenolpoly(ethylene-glycolether)n (Boerhringer Mannheim) (1.3 μM) was prepared in a stirred cuvette. Coumarin peptide substrate (2 μL of a 1 mM solution in dimethyl sulfoxide) was added to the reaction mixture. The rate of hydrolysis was determined for about 100-200 seconds by measuring the fluorescence of the reaction at ex328 nanometers and […] using a Hitachi F-2000 Fluorescence Spectrophotometer.
2 μL of a 10 mM inhibitor stock solution (in dimethyl sulfoxide) is added and the reduction in the rate of hydrolysis is determined. Additional 2 μL aliquots of the stock inhibitor solution is added until a 30% to 70% inhibition is observed. Ki is calculated on the assumption of simple competitive inhibition and that the substrate concentration is much less than Km.

[1] = tested on: bovine cartilage explants; test: Bovine cartilage explant assay (35S-GAG release, rhIL-1α stimulated); type: cell-based; conditions: Bos taurus, rhIL-1α 5 ng/mL, 3-4 days culture, read-out: % inhibition (concentration [μM]) of cartilage degradation
Excerpt: A tissue culture assay was used to measure the ability of the compounds of the present invention to slow the degradation of the extracellular matrix by metalloproteinases. This assay measured the amount of ^35 S-glycosaminoglycan (^35 S-GAG) released from labeled bovine cartilage explants.
Knee joints from a 1 to 3 week old calf were obtained immediately after sacrifice from the Abattoir and then transported on ice. The intact joints were washed well with tap water and soaked in 50% (v/v) Povidine iodine solution, obtained from Burre National, Inc., Baltimore, Md. All subsequent steps were performed in a laminar flow tissue culture hood using standard sterile technique. The joint was immobilized in a shank holder and the joint capsule was cut open to expose the articular cartilage. Cartilage explant plugs, approximately 15 mg wet weight, were removed from the flat articulating surfaces in the lower-most region of the knee joint using a sterile steel cork-borer and collected in a 250 mL roller bottle containing about 100 mL fresh Delbecco's minimum essential medium (DMEM), obtained from Gibco BRC, Life Technologies, Gaithersburg, Md., containing 4.5 g/l (D)-glucose and (L)-glutamine, without sodium pyruvate. The fresh media also contained enough Hepes buffer and sodium bicarbonate such that the pH was about 7.4. The media was then further supplemented just before use with 100 units Penicillin, 100 μg Streptomycin, and 50 μg (L)-ascorbic acid per mL of medium.
Once collected, the explant plugs were washed four times with 50 mL fresh DMEM. The plugs were then placed in the incubator for a minimum of 1 hour to equilibrate, before proceeding to make disks from the articulating surface of each plug. A 1 mm thick disk was sliced from individual plugs from the end that was the articulating surface of the joint. The plug was held steady in the sterile template (4 mm diameter×1.5 mm deep) using sterile forceps. A scalpel blade was used to carefully slice off the disk. Only the superficial articulating surface responded well in culture.
Individual disks obtained were transferred to a tissue culture flask containing about 100 mL fresh media. The flask containing the disks was placed in an incubator at 37° C. (with 5% CO2, 95% air) and allowed to equilibrate overnight and at least one additional day before labeling. When ready to label, the old media was replaced with 50 mL fresh media containing about 500 μCi ^35 S-Sodium Sulfate. The plugs were labeled in bulk for about 48 hours. The next morning, the "hot" media was removed and replaced with fresh "cold" media. The disks were again allowed to equilibrate overnight before being used for actual experiments.
The media in which the disks were stored was changed immediately prior to performing the assay. The disks were then returned to the incubator until the test media and the two control media had been prepared. The test media consisted of the desired concentration of a compound being tested for its ability to inhibit extracellular matrix degradation and concomitant recombinant human Interleukin rhIL-1α (5 ng/mL) in fresh DMEM solution. The control media were identical to the test media, except that the first control media lacked rhIL-1α and the second control media lacked the test compound. 250 μL of each of the test and control media were transferred to separate 96-well TC plates. Flamed forceps were used to transfer a disk from the incubator to each 96-well TC plates that had been filled with either the test media or one of the two control media.
The TC plates were then placed in the incubator and cultured for 3-4 days (initial incubation with rhIL-1α alpha takes at least 3 days to stimulate endogenous metalloproteinases). A 50 μL aliquot of media from each TC plate was saved and counted. The rest of the media was removed with a suction device.
The cartilage disks from each TC plate were also saved for counting. […]

Ki (72 kD gelatinase) [nM]	Structure (SMILES)	inhibition at 25 µM ([1]; 25 μM compound) [%]	inhibition at 50 µM ([1]; 50 μM compound) [%]	inhibition at 10 µM ([1]; 10 μM compound) [%]
1.95	CC(C)C[C@H](NC(=O)[C@H](Cc1ccccc1)NC(=O)OCc1ccccc1)C(=O)Nc1n[nH]c(=S)s1 [5-(N-benzyloxycarbonyl-phenylalanyl-leucylamino)-1,3,4-thiadiazole-2-thione]	–	33	–
4.6	CC(C)[C@H](NC(=O)[C@H](Cc1ccccc1)NC(=O)OCc1ccccc1)C(=O)Nc1n[nH]c(=S)s1 [5-(N-benzyloxycarbonyl-phenylalanyl-valylamino)-1,3,4-thiadiazole-2-thione]	–	–	40

Structure (SMILES)	Ki (72 kD gelatinase) [nM]	inhibition at 25 µM ([1]; 25 μM compound) [%]	inhibition at 50 µM ([1]; 50 μM compound) [%]	inhibition at 10 µM ([1]; 10 μM compound) [%]
O=C(N[C@@H](Cc1ccc(OCc2ccccc2)cc1)C(=O)N[C@H](C(=O)Nc1n[nH]c(=S)s1)c1ccccc1)OCc1ccccc1	0.145	20	–	–
